From patent US20140271573A1, “PHARMACO-CELLULAR THERAPEUTIC METHOD FOR THE TREATMENT OF MUSCULAR DYSTROPHIES” (PONTIFICIA UNIVERSIDAD CATÓLICA DE CHILE, priority 2013, published 2014)
“Also recorded” adds a separate entry of the source.

What was measured:
MES-13 cells = details: cited from earlier work
mdx mice [1] = assay: Migration of DiI-labeled tendon fibroblasts injected into tibialis anterior of mdx mice; assay type: in vivo, mouse; details: mdx mice pre-treated 1 mg/Kg, tendon fibroblasts injected one week after treatment, analysed after one month, vs vehicle
Method: FIG. 7. Andrographolide increases cell migration through fibrosis inhibition. A) Migration of DiI-labeled tendon fibroblast cells after injection into the tibialis anterior of 7-month-old mdx mice (3 months old mdx mice exercised for four months). […] B) Quantitative analysis of the spreading DiI-labeled tendon fibroblast cells was calculated by counting DiI-labeled cells in 200 μm×200 μm squares from three non-serial transverse sections for three mice per group.
3 month old mdx mice were exercised for 4 months and treated with 1 mg/Kg andrographolide or Vehicle. One week after the treatment, mice were anesthetized with an intramuscular injection of physiologic saline (10 ml kg^−1) containing ketamine (5 mg ml^−1) and xylazine (1 mg ml^−1) and then injected with approximately 5×10^5 tendon fibroblasts into the tibialis anterior muscle via a 0.20-mm diameter needle inserted along the cranio-caudal axis of the muscle as previously described (Gargioli et al., 2008). Fibroblasts were previously labeled with 2 mMDiI according to the protocol supplied by the manufacturer (Molecular Probes). One month after the injection, mice were sacrificed for morphological analyses.

CTGF = CTGF mRNA levels in tibialis anterior muscle of exercised mdx mice, RT-qPCR; assay type: in vivo, mouse; details: 1 mg/kg i.p. 3 times per week for 3 months, vs vehicle
Method: FIG. 3. Andrographolide modulates CTGF action in vivo. A) To augment the extent of muscle fibrosis, 3 months old mdx mice were subjected to an exercise protocol for 3 months. Along this period one group was treated with 1 mg/kg andrographolide or vehicle (i.p. injections 3 time per week, 4 animal per group). CTGF mRNA levels, a downstream TGF-β1 pro-fibrotic mediator) were determined in tibialis anterior muscle from Wild type (WT), Vehicle-Treated mdx and andrographolide-treated mdx mice by RT-qPCR using GAPDH as reference gene. Values correspond to the mean of dCT value±SD of three independent experiments, using four mice for each experimental condition and normalized to WT levels (*, P<0.05 relative to WT mice; #, P<0.05 relative to Vehicle-treated mdx mice). B) Detection of macrophages (F4/80 positive cells) through immunohistochemistry analysis in cryosections of tibialis anterior muscle from andrographolide-treated WT mice that overexpress CTGF by adenovirus (adv CTGF) infection.
Control or mdx (12 weeks old) male mice of C57BL/10 ScSn strain were studied. The animals were kept at room temperature with a […] night-day cycle and fed with pellets and water ad libitum. Experimental exercise was performed for running the mice in a treadmill for three times per week, 30 minutes each time at 12 m/min during 3 or 4 months (De Luca et al., 2005; De Luca et al., 2003). […]

mdx mice [2] = assay: Treadmill running test (step backs) in mdx mice; assay type: in vivo, mouse; details: treated mdx mice, treadmill at 15 m/min
Method: FIG. 6. Andrographolide increased skeletal muscle strength and exercise performance in mdx mice. 3 months old Wild Type (WT) and mdx mice were subjected to an exercise protocol for 3 months to augment the extent of muscle fibrosis. Along this period one group was treated with 1 mg/kg andrographolide or vehicle (i.p. injections 3 time per week, 6 animal per group). A) tibialis anterior muscles from wild-type (WT), Vehicle-treated mdx and andrographolide-treated mdx mice were isolated to evaluate isometric specific force (mN/mm2) at different stimulation frequencies (pulses per second, pps). B) Bar graph showing tetanic specific force. Values are represented as percentage of specific isometric force generated by Wild type muscle (*, P<0.05 relative to WT mice; #, P<0.05 relative to Vehicle-treated mdx mice). C) Bar graph showing twitch force (*, P<0.05 relative to WT mice; #, P<0.05 relative to Vehicle-treated mdx mice). D) Mice were subjected to an exercise challenge into the treadmill at 15 meters/min for 5 minutes and the number of stebacks was counted (*, P<0.05 relative to WT mice; #, P<0.05 relative to Vehicle-treated mdx mice).
Mice were subjected to a running test during […] at 15 m/min in a treadmill. The number of times that mice were retarded (step backs) to the first ⅓ of the moving platform was counted (Cabello-Verrugio et al., 2012).

C=C1CC[C@@H]2[C@](C)(CO)[C@H](O)CC[C@@]2(C)[C@@H]1C/C=C1/C(=O)OC[C@H]1O [andrographolide]
phenotypes indicating diabetic nephropathy in MES-13 cells (MES-13 cells; MES-13 cells): reduces | antioxidant ability in a cellular environment (MES-13 cells): do not have antioxidant ability | intracellular oxidative states (MES-13 cells; high glucose cultured MES-13 cells): reduced | DiI-labeled cell distribution in muscle (mdx mice [1]): distributed more homogenously; also recorded: more homogenous | CTGF expression (mRNA) in mdx mice (CTGF): reduced | number of stepbacks at the treadmill (mdx mice [2]): decreased
